Earlier results in patent US20180042845A1, “PREPARATIONS OF CANNABIS EMULSIONS AND METHODS THEREOF” (ONE WORLD CANNABIS LTD., priority 2015, published 2018).

Key:
CB2 receptor = CB2 receptor (Homo sapiens, UniProt P34972)
CB2 receptor, sequence (P34972 whole entry): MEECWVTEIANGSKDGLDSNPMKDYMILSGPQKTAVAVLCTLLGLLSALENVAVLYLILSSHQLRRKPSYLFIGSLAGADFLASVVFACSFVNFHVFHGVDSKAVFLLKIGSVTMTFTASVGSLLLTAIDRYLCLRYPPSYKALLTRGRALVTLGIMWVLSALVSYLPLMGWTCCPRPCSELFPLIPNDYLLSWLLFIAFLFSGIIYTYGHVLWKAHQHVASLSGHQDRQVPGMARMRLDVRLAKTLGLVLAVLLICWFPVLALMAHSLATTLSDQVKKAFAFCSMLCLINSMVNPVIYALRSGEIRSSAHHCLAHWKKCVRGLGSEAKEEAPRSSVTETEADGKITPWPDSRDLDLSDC

Compound	Affinity for CB2 receptors (CB2 receptor)	Fraction of administered dose reaching systemic circulation (oral, first pass hepatic metabolism and high lipid solubility)	Fraction absorbed after a single oral dose (single dose)
C=C(C)[C@@H]1CCC(C)=C[C@H]1c1c(O)cc(CCCCC)cc1O [Cannabidiol]	very low affinity		
CCCCCc1cc(O)c2c(c1)OC(C)(C)[C@@H]1CCC(C)=C[C@@H]21 [THC, Tetrahydrocannabinol]		10-20%	90-95%
